Laboratory results: ChEMBL document CHEMBL5316324, “Discovery, Characterization, and Engineering of LvIC, an α4/4-Conotoxin That Selectively Blocks Rat α6/α3β4 Nicotinic Acetylcholine Receptors” (J Med Chem, 2023)
Numbered stars: 1 amine (or outer) side, 2 acyl side, 3 side chain; on linkers, the order of the positions; unused ones are H or OH. Bridge positions count the residues as written; N and C are the ends. Square brackets hold non-standard residues; d marks the D form. Side chains are listed from the residue outwards. Peptide text beside a SMILES is read from it. ξ: configuration not given here. ξPro(4ξ-NH2) = O=C(C1CC(N[*:3])CN1[*:1])[*:2]; ξpGlu = O=C1CCC(C(=O)O)N1

Experiments:
[1] = molecular target: T1, Nicotinic acetylcholine receptor alpha6/alpha3/beta4 (Rattus norvegicus, UniProt P04757+P12392+P43143); test: (§1) Inhibition of rat alpha6/alpha3beta4 nAChR expressed in Stage V-VI Xenopus laevis Oocytes assessed as inhibition of acetylcholine-induced current in presence of acetylcholine by electrophysiological recording; format: cell-based, Oocyte
T1 sequence (P04757 whole entry): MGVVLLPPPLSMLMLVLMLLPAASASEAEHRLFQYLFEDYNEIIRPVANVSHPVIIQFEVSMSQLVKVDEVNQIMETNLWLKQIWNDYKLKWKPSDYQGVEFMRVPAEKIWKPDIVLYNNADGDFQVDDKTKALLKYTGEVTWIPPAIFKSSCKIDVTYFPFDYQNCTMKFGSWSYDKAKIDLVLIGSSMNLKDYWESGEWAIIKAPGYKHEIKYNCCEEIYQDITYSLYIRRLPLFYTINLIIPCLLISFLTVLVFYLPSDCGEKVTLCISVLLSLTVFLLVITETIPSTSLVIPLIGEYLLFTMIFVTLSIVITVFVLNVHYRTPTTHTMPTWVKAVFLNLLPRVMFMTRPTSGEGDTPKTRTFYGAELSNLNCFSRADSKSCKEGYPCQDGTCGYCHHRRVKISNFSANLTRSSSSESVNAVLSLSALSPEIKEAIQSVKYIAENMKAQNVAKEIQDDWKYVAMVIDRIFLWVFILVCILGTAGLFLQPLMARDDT
T1 sequence (P12392 whole entry): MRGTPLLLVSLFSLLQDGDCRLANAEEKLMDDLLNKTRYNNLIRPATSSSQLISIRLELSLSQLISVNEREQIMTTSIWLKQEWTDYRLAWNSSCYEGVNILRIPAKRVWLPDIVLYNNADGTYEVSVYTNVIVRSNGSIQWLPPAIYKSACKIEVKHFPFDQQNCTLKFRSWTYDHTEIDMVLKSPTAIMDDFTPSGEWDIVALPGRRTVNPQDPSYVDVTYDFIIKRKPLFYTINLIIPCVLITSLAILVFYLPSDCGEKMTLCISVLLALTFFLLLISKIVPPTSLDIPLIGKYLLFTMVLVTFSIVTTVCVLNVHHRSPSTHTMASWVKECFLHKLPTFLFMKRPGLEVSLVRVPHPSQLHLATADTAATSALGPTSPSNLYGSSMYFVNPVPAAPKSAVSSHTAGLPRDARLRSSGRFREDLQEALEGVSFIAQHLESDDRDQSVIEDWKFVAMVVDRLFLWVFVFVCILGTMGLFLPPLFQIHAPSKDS
T1 sequence (P43143 whole entry): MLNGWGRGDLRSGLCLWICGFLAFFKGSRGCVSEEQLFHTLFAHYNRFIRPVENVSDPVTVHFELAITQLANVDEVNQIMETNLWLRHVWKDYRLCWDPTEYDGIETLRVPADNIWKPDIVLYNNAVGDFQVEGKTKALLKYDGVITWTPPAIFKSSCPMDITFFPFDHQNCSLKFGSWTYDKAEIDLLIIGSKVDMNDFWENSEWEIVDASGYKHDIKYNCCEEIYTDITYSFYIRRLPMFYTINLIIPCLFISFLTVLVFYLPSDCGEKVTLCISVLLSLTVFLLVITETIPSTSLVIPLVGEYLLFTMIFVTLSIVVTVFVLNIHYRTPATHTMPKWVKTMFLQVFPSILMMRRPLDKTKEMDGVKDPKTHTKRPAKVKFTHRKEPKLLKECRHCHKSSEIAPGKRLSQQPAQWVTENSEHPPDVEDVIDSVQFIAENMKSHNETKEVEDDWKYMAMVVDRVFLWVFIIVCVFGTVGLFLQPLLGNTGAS

[2] = molecular target: Nicotinic acetylcholine receptor alpha6/alpha3/beta4 (Rattus norvegicus) (UniProt P04757+P12392+P43143); test: as §1, with “current by measuring recovery time at 10 uM preincubated with compound for 5 mins followed by washout” for “current”; format: cell-based; details: Oocyte
Rattus norvegicus = species on record: Rattus norvegicus; test: Selectivity ratio of IC50 for rat alpha6/alpha3beta4 nAChR expressed in Stage V-VI Xenopus laevis oocytes in presence of acetylcholine to IC50 for rat alpha3beta4 nAChR expressed in Stage V-VI Xenopus laevis Oocytes in presence of acetylcholine by electrophysiological recording; format: cell-based
[3] = molecular target: T1, Nicotinic acetylcholine receptor alpha6/alpha3/beta4; test: Inhibition of rat alpha6/alpha3beta4 nAChR expressed in Xenopus Oocytes in presence of acetylcholine by Voltage-clamp recording; format: cell-based
[4] = molecular target: Nicotinic acetylcholine receptor alpha9/alpha10 (Rattus norvegicus, UniProt P43144+Q9JLB5); test: Inhibition of rat alpha9/alpha10 nAChR expressed in Stage V-VI Xenopus laevis Oocytes assessed as inhibition of acetylcholine-induced current in presence of acetylcholine by electrophysiological recording; format: cell-based, Oocyte
[5] = molecular target: Neuronal acetylcholine receptor; alpha3/beta2 (Rattus norvegicus) (UniProt P04757+P12390); test: Inhibition of rat alpha3/beta2 nAChR expressed in Stage V-VI Xenopus laevis Oocytes assessed as inhibition of acetylcholine-induced current at 10 uM in presence of acetylcholine by electrophysiological recording relative to control; format: cell-based; details: Oocyte
[6] = molecular target: Neuronal acetylcholine receptor; alpha3/beta4 (Rattus norvegicus) (UniProt P04757+P12392); test: Inhibition of rat alpha3/beta4 nAChR expressed in Stage V-VI Xenopus laevis Oocytes assessed as inhibition of acetylcholine-induced current at 10 uM in presence of acetylcholine by electrophysiological recording relative to control; format: cell-based; details: Oocyte
[7] = molecular target: Nicotinic acetylcholine receptor alpha1/beta1/epsilon/delta (Mus musculus, UniProt P02716+P04756+P09690+P20782); test: Inhibition of mouse alpha1/beta1deltaepsilon nAChR expressed in Stage V-VI Xenopus laevis Oocytes assessed as inhibition of acetylcholine-induced current in presence of acetylcholine by electrophysiological recording; format: cell-based, Oocyte
Chain of Nicotinic acetylcholine receptor alpha1/beta1/epsilon/delta (P04756 whole entry): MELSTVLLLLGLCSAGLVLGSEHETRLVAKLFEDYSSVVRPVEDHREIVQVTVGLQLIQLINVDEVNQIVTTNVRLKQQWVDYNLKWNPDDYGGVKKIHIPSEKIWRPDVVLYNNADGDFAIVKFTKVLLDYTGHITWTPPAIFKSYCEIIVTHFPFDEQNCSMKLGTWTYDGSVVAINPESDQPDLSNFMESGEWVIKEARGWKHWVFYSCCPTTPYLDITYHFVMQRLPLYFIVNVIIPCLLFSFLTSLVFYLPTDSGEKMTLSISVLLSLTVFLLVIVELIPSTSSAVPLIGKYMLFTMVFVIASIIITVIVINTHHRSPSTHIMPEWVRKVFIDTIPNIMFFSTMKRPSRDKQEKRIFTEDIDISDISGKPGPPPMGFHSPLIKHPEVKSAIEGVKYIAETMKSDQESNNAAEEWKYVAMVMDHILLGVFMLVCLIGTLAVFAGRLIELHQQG
Chain of Nicotinic acetylcholine receptor alpha1/beta1/epsilon/delta (P09690 whole entry): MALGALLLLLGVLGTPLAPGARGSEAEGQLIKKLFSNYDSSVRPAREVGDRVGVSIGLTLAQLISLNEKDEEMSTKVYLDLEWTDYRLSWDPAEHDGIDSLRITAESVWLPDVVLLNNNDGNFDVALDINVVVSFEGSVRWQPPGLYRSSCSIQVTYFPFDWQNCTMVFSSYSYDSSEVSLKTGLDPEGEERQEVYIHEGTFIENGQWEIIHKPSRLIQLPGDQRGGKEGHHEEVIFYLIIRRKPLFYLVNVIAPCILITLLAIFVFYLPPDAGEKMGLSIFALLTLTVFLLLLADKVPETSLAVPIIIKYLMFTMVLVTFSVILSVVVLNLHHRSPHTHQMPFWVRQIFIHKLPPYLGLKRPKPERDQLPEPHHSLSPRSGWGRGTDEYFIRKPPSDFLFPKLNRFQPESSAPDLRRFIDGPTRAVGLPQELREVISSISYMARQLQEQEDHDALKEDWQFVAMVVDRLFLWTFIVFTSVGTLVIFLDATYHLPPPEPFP
Chain of Nicotinic acetylcholine receptor alpha1/beta1/epsilon/delta (P02716 whole entry): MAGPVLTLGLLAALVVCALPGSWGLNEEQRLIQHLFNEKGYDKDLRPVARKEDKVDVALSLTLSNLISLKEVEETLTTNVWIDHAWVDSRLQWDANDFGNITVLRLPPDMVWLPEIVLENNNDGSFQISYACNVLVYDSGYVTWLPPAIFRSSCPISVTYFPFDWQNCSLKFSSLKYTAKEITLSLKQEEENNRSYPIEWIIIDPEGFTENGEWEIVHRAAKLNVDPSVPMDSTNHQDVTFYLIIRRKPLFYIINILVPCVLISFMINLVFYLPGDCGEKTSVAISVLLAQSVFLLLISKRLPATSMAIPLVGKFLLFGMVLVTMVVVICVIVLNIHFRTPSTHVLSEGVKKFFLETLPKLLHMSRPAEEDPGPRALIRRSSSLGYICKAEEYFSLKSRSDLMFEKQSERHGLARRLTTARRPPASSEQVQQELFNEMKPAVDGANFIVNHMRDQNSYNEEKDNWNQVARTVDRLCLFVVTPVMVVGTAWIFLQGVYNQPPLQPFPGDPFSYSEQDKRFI
Chain of Nicotinic acetylcholine receptor alpha1/beta1/epsilon/delta (P20782 whole entry): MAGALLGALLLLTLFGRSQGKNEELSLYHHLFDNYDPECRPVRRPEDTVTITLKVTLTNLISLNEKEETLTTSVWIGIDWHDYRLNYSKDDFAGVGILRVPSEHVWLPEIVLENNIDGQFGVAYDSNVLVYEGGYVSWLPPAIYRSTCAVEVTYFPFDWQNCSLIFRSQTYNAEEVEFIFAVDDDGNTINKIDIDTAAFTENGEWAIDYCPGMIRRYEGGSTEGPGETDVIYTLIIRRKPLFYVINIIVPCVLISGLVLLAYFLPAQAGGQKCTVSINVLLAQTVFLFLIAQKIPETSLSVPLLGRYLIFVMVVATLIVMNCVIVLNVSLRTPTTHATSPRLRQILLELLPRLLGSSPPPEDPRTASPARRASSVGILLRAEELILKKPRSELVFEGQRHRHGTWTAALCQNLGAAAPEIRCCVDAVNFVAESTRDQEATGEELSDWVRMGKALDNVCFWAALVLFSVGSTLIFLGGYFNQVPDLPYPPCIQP

[8] = molecular target: Nicotinic acetylcholine receptor alpha6/alpha3/beta2/beta3 (Rattus norvegicus, UniProt P04757+P12390+P12391+P43143); test: Inhibition of rat alpha6/alpha3beta2beta3 nAChR expressed in Stage V-VI Xenopus laevis Oocytes assessed as inhibition of acetylcholine-induced current in presence of acetylcholine by electrophysiological recording; format: cell-based, Oocyte
[9] = molecular target: Neuronal acetylcholine receptor; alpha3/beta4 (Rattus norvegicus, UniProt P04757+P12392); test: Inhibition of rat alpha3/beta4 nAChR expressed in Stage V-VI Xenopus laevis Oocytes assessed as inhibition of acetylcholine-induced current in presence of acetylcholine by electrophysiological recording; format: cell-based, Oocyte
[10] = molecular target: Neuronal acetylcholine receptor subunit alpha-7 (Rattus norvegicus, UniProt Q05941); test: Inhibition of rat alpha7 nAChR expressed in Stage V-VI Xenopus laevis Oocytes assessed as inhibition of acetylcholine-induced current in presence of acetylcholine by electrophysiological recording; format: cell-based, Oocyte
[11] = molecular target: Neuronal acetylcholine receptor; alpha4/beta4 (Rattus norvegicus) (UniProt P09483+P12392); test: Inhibition of rat alpha4/beta4 nAChR expressed in Stage V-VI Xenopus laevis Oocytes assessed as inhibition of acetylcholine-induced current at 10 uM in presence of acetylcholine by electrophysiological recording relative to control; format: cell-based; details: Oocyte
[12] = molecular target: Neuronal acetylcholine receptor; alpha2/beta4 (Rattus norvegicus, UniProt P12389+P12392); test: Inhibition of rat alpha2/beta4 nAChR expressed in Stage V-VI Xenopus laevis Oocytes assessed as inhibition of acetylcholine-induced current in presence of acetylcholine by electrophysiological recording; format: cell-based, Oocyte
[13] = molecular target: Nicotinic acetylcholine receptor alpha1/beta1/epsilon/delta (Mus musculus) (UniProt P04756+P09690+P02716+P20782); test: Inhibition of mouse alpha1/beta1deltaepsilon nAChR expressed in Stage V-VI Xenopus laevis Oocytes assessed as inhibition of acetylcholine-induced current at 10 uM in presence of acetylcholine by electrophysiological recording relative to control; format: cell-based; details: Oocyte
[14] = molecular target: Neuronal acetylcholine receptor; alpha2/beta2 (Rattus norvegicus, UniProt P12389+P12390); test: Inhibition of rat alpha2/beta2 nAChR expressed in Stage V-VI Xenopus laevis Oocytes assessed as inhibition of acetylcholine-induced current in presence of acetylcholine by electrophysiological recording; format: cell-based, Oocyte
[15] = molecular target: Neuronal acetylcholine receptor; alpha2/beta2 (Rattus norvegicus) (UniProt P12389+P12390); test: Inhibition of rat alpha2/beta2 nAChR expressed in Stage V-VI Xenopus laevis Oocytes assessed as inhibition of acetylcholine-induced current at 10 uM in presence of acetylcholine by electrophysiological recording relative to control; format: cell-based; details: Oocyte
[16] = molecular target: Nicotinic acetylcholine receptor alpha9/alpha10 (Rattus norvegicus) (UniProt P43144+Q9JLB5); test: Inhibition of rat alpha9/alpha10 nAChR expressed in Stage V-VI Xenopus laevis Oocytes assessed as inhibition of acetylcholine-induced current at 10 uM in presence of acetylcholine by electrophysiological recording relative to control; format: cell-based; details: Oocyte
[17] = molecular target: Neuronal acetylcholine receptor; alpha4/beta2 (Rattus norvegicus, UniProt P09483+P12390); test: Inhibition of rat alpha4/beta2 nAChR expressed in Stage V-VI Xenopus laevis Oocytes assessed as inhibition of acetylcholine-induced current in presence of acetylcholine by electrophysiological recording; format: cell-based, Oocyte
[18] = molecular target: Neuronal acetylcholine receptor; alpha4/beta2 (Rattus norvegicus) (UniProt P09483+P12390); test: Inhibition of rat alpha4/beta2 nAChR expressed in Stage V-VI Xenopus laevis Oocytes assessed as inhibition of acetylcholine-induced current at 10 uM in presence of acetylcholine by electrophysiological recording relative to control; format: cell-based; details: Oocyte
[19] = molecular target: Neuronal acetylcholine receptor; alpha4/beta4 (Rattus norvegicus, UniProt P09483+P12392); test: Inhibition of rat alpha4/beta4 nAChR expressed in Stage V-VI Xenopus laevis Oocytes assessed as inhibition of acetylcholine-induced current in presence of acetylcholine by electrophysiological recording; format: cell-based, Oocyte
Chain of Neuronal acetylcholine receptor; alpha4/beta4 (P09483 whole entry): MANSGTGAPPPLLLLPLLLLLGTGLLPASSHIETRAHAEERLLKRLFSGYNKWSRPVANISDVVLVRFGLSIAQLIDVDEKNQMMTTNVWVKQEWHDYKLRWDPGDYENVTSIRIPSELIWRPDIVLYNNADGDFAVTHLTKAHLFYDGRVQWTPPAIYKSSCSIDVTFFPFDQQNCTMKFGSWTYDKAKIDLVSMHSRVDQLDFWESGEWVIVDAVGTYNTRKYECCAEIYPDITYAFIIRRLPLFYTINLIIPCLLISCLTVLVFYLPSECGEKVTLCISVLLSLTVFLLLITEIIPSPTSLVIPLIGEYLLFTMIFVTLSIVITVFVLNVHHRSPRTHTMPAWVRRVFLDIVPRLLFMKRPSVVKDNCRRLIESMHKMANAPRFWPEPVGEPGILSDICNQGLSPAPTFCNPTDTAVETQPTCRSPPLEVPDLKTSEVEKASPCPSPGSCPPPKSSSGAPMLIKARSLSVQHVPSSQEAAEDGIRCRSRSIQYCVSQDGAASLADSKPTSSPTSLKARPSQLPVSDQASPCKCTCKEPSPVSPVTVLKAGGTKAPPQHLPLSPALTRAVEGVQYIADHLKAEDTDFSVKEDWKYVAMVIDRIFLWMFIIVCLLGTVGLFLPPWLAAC
Chain of Neuronal acetylcholine receptor; alpha4/beta4 (P12392 whole entry): as the sequence (P12392 whole entry) above

[20] = molecular target: Neuronal acetylcholine receptor; alpha3/beta2 (Rattus norvegicus, UniProt P04757+P12390); test: Inhibition of rat alpha3/beta2 nAChR expressed in Stage V-VI Xenopus laevis Oocytes assessed as inhibition of acetylcholine-induced current in presence of acetylcholine by electrophysiological recording; format: cell-based, Oocyte
[21] = molecular target: Neuronal acetylcholine receptor subunit alpha-7 (Rattus norvegicus) (UniProt Q05941); test: Inhibition of rat alpha7 nAChR expressed in Stage V-VI Xenopus laevis Oocytes assessed as inhibition of acetylcholine-induced current at 10 uM in presence of acetylcholine by electrophysiological recording relative to control; format: cell-based; details: Oocyte
[22] = molecular target: Neuronal acetylcholine receptor; alpha2/beta4 (Rattus norvegicus) (UniProt P12389+P12392); test: Inhibition of rat alpha2/beta4 nAChR expressed in Stage V-VI Xenopus laevis Oocytes assessed as inhibition of acetylcholine-induced current at 10 uM in presence of acetylcholine by electrophysiological recording relative to control; format: cell-based; details: Oocyte
[23] = molecular target: Nicotinic acetylcholine receptor alpha6/alpha3/beta2/beta3 (Rattus norvegicus) (UniProt P04757+P12390+P12391+P43143); test: Inhibition of rat alpha6/alpha3beta2beta3 nAChR expressed in Stage V-VI Xenopus laevis Oocytes assessed as inhibition of acetylcholine-induced current at 10 uM in presence of acetylcholine by electrophysiological recording relative to control; format: cell-based; details: Oocyte

Row | SMILES | IC50 [1] [µM] | TIME [2] [h] | IC50 [4] [µM] | inhibition [5] [%] | inhibition [6] [%] | IC50 [7] [µM] | IC50 [8] [µM] | IC50 [9] [µM] | IC50 [10] [µM] | inhibition [11] [%] | IC50 [12] [µM] | inhibition [13] [%] | IC50 [14] [µM] | inhibition [15] [%] | inhibition [16] [%] | IC50 [17] [µM] | inhibition [18] [%] | IC50 [19] [µM] | IC50 [20] [µM] | inhibition [21] [%] | further results
1 | CC(C)[C@H](NC(=O)[C@H](CS)NC(=O)[C@H](C)NC(=O)[C@@H]1CCCN1C(=O)[C@H](CC(N)=O)NC(=O)[C@H](Cc1c[nH]c2ccccc12)NC(=O)[C@H](CS)NC(=O)[C@H](CS)NC(=O)CNC(=O)C1CC(NC(=O)[C@H](CO)NC(=O)C2CCC(=O)N2)CN1)C(=O)N[C@@H](CCCCN)C(=O)N[C@@H](CC(N)=O)C(=O)N[C@@H](CCCNC(=N)N)C(=O)N[C@@H](CS)C(N)=O (stereo not given in full) (H-[ξPro(4ξ-NH2)]([Ser-ξpGlu])GCCWNPACVKNRC-NH2) | 0.094 | 0.05 | – | – | – | – | – | – | – | – | – | – | – | – | – | – | – | – | – | – | –
2 | CC(C)C[C@H](NC(=O)[C@@H](NC(=O)[C@H](C)NC(=O)[C@H](CS)NC(=O)[C@@H]1CCCN1C(=O)[C@@H]1CCC(=O)N1C(=O)[C@H](C)NC(=O)[C@H](CO)NC(=O)[C@H](CS)NC(=O)[C@H](CS)NC(=O)CN)C(C)C)C(=O)N[C@@H](Cc1ccc(O)cc1)C(=O)N[C@@H](CS)C(N)=O | – | – | – | – | – | – | – | – | – | – | – | – | – | – | – | – | – | – | – | – | Ratio (Rattus norvegicus): 20; IC50 [3]: 0.0581 µM
3 | CC(C)[C@H](NC(=O)[C@@H]1CCCN1C(=O)[C@H](CC(N)=O)NC(=O)[C@H](C)NC(=O)[C@H](CS)NC(=O)[C@H](CS)NC(=O)CN)C(=O)N[C@@H](CS)C(=O)N[C@@H](CC(N)=O)C(=O)NCC(=O)N[C@@H](C)C(=O)N[C@@H](Cc1cnc[nH]1)C(=O)N[C@@H](CS)C(N)=O (H-GCCANPVCNGAHC-NH2) | 0.0723 | 0.217 | – | – | – | – | – | – | – | – | – | – | – | – | – | – | – | – | – | – | –
4 | CC(C)[C@H](NC(=O)[C@@H]1CCCN1C(=O)[C@H](CC(N)=O)NC(=O)[C@H](C)NC(=O)[C@H](CS)NC(=O)[C@H](CS)NC(=O)[C@@H](N)CC(=O)O)C(=O)N[C@@H](CS)C(=O)N[C@@H](CC(N)=O)C(=O)NCC(=O)N[C@@H](CCCCN)C(=O)N[C@@H](Cc1cnc[nH]1)C(=O)N[C@@H](CS)C(N)=O (H-DCCANPVCNGKHC-NH2) | 0.31 | – | > 10 | < 50 | < 50 | > 10 | > 10 | > 10 | > 10 | < 50 | > 10 | < 50 | > 10 | < 50 | < 50 | > 10 | < 50 | > 10 | > 10 | < 50 | inhibition [22]: < 50%; inhibition [23]: < 50%
5 | CC(C)[C@@H]1NC(=O)[C@@H]2CCCN2C(=O)[C@H](CC(N)=O)NC(=O)[C@H](C)NC(=O)[C@@H]2CSSC[C@@H](C(=O)N[C@@H](CCC(N)=O)C(=O)O)NC(=O)[C@H](Cc3cnc[nH]3)NC(=O)[C@H](CCCCN)NC(=O)CNC(=O)[C@H](CC(N)=O)NC(=O)[C@H](CSSC[C@H](NC(=O)[C@@H](N)CC(=O)O)C(=O)N2)NC1=O (H-DCCANPVCNGKHCQ-OH; disulfide 2-8, 3-13) | 3.3 | – | > 10 | < 50 | < 50 | > 10 | > 10 | > 10 | > 10 | < 50 | > 10 | < 50 | > 10 | < 50 | < 50 | > 10 | < 50 | > 10 | > 10 | < 50 | inhibition [22]: < 50%; inhibition [23]: < 50%
6 | CC(C)[C@H](NC(=O)[C@H](Cc1cnc[nH]1)NC(=O)[C@H](CCCCN)NC(=O)[C@H](CS)NC(=O)[C@@H]1CCCN1C(=O)[C@@H]1CCCN1C(=O)[C@H](CC(N)=O)NC(=O)[C@H](C)NC(=O)[C@H](CS)NC(=O)[C@H](CS)NC(=O)C1CCC(=O)N1)C(=O)N[C@@H](CC(N)=O)C(=O)N[C@@H](CS)C(=O)N[C@@H](CCCNC(=N)N)C(N)=O (stereo not given in full) ([ξpGlu]CCANPPCKHVNCR-NH2) | 0.0818 | 0.15 | – | – | – | – | – | – | – | – | – | – | – | – | – | – | – | – | – | – | –
